This is an account of results in patent US9663473B2 (Actelion Pharmaceuticals Ltd, priority 2013, dated 2017).

As usually defined, the pEC50 is −log10 of the EC50, conventionally taken in molar units.

The structures appear in SMILES notation. pEC50: −log10 of the molar value. Structures can show the parent of a compound that is named as a salt.

This assay addresses T1, recombinant human ALX receptor (Homo sapiens, UniProt P25090).
T1 construct: expressed in transfected cells; host or cells: HEK293 (HEK293-hALXR-Gα16)
T1 sequence (P25090 1-351): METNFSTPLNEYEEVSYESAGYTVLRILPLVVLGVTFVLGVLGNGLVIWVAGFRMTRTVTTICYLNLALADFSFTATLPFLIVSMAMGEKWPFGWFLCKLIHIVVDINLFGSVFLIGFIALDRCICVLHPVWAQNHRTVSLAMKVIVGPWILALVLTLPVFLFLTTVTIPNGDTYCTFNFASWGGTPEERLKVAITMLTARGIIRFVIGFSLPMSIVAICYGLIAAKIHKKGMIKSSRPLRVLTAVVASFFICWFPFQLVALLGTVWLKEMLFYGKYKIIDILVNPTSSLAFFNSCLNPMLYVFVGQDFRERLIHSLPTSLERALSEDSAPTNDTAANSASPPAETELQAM
Kind of assay: Intracellular calcium measurements (FLIPR), ALX receptor agonistic activity. The format is cell-based. The note with it: HEK293-hALXR-Gα16 cells, Fluo-4 calcium signal, normalized to WKYMVm 10 nM. The method in brief:
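Agonist-induced calcium flux was read by FLIPR (488/540 nm) as baseline-subtracted peak emission, expressed relative to WKYMVm at 10 nM final. Cells used: HEK293-hALXR-Gα16, dye-loaded 60 min at 37° C. with 1 μM Fluo-4 AM before compound dose-response addition.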
Background: Calcium flux is commonly read through the fluorescence of an indicator in the cells.

With `COc1ccc(C[C@@H](NC(=O)N[C@H](C)c2ccccc2)c2nc3ccccc3[nH]2)cc1` [Example 349, 1-((R)-1-(1H-Benzo[d]imidazol-2-yl)-2-(4-methoxyphenyl)ethyl)-3-((R)-1-phenylethyl)urea], the negative-log EC50 (pEC50) is 6.54.
`COc1ccc(C[C@@H](NC(=O)NC(C)(C)c2ccccc2)c2nc3ccccc3[nH]2)cc1` [Example 350, (R)-1-(1-(1H-Benzo[d]imidazol-2-yl)-2-(4-methoxyphenyl)ethyl)-3-(2-phenylpropan-2-yl)urea]: the pEC50 was 6.54.
Turning to `COc1ccc(C[C@@H](NC(=O)NC2(c3ccccc3)CC2)c2nc3ccccc3[nH]2)cc1` [Example 351, (R)-1-(1-(1H-Benzo[d]imidazol-2-yl)-2-(4-methoxyphenyl)ethyl)-3-(1-phenylcyclopropyl)urea], the pEC50 is 6.46.
For `COc1ccc(C[C@@H](NC(=O)NC(C)(C)c2ccc(Cl)cc2)c2nc3ccccc3[nH]2)cc1` [Example 352, (R)-1-(1-(1H-Benzo[d]imidazol-2-yl)-2-(4-methoxyphenyl)ethyl)-3-(2-(4-chlorophenyl)propan-2-yl)urea], the pEC50 was 6.43.
Then `COc1ccc(C[C@@H](NC(=O)NC(C)(C)c2cccc(C)c2)c2nc3ccccc3[nH]2)cc1` [Example 353, (R)-1-(1-(1H-Benzo[d]imidazol-2-yl)-2-(4-methoxyphenyl)ethyl)-3-(2-(m-tolyl)propan-2-yl)urea], with 6.34; and `COc1ccc(C[C@@H](NC(=O)NC2(c3cccc(C)c3)CC2)c2nc3ccccc3[nH]2)cc1` [Example 354, (R)-1-(1-(1H-Benzo[d]imidazol-2-yl)-2-(4-methoxyphenyl)ethyl)-3-(1-(m-tolyl)cyclopropyl)urea], with 6.84.
Then `COc1ccc(C[C@@H](NC(=O)NC2(c3ccc(Cl)cc3)CC2)c2nc3ccccc3[nH]2)cc1` [Example 355, (R)-1-(1-(1H-Benzo[d]imidazol-2-yl)-2-(4-methoxyphenyl)ethyl)-3-(1-(4-chlorophenyl)cyclopropyl)urea], with 6.80.
The figure for `COc1ccc(C[C@@H](NC(=O)NC2(c3ccc(C(F)(F)F)cc3)CC2)c2nc3ccccc3[nH]2)cc1` [Example 358, (R)-1-(1-(1H-Benzo[d]imidazol-2-yl)-2-(4-methoxyphenyl)ethyl)-3-(1-(4-(trifluoromethyl)phenyl)cyclopropyl)urea] is 6.75.
Turning to `COc1ccc(CC(NC(=O)N[C@@H](C)c2cccc(Cl)c2)c2nc3ccccc3[nH]2)cc1` (stereo partly drawn) [Example 360, 1-(1-(1H-Benzo[d]imidazol-2-yl)-2-(4-methoxyphenyl)ethyl)-3-((S)-1-(3-chlorophenyl)ethyl)urea], the negative-log EC50 (pEC50) is 6.25.
In the case of `O=C(N[C@H](Cc1ccc(CF)cc1)c1nc2ccccc2[nH]1)N[C@H]1CC[C@H](O)CC1` [Example 364, 1-((R)-1-(1H-Benzo[d]imidazol-2-yl)-2-(4-(fluoromethyl)phenyl)ethyl)-3-(trans-4-hydroxycyclohexyl)urea], the negative-log EC50 (pEC50) was 8.00.
Then `COc1ccc(CC(NC(=O)NCc2cc(C(C)C)on2)c2nc3ccccc3[nH]2)cc1` (centres unmarked) [Example 377, 1-(1-(1H-Benzo[d]imidazol-2-yl)-2-(4-methoxyphenyl)ethyl)-3-((5-isopropylisoxazol-3-yl)methyl)urea], with 5.79; and `COc1ccc(C[C@@H](NC(=O)N[C@H](CC(=O)OC(C)(C)C)c2ccccc2)c2nc3ccccc3[nH]2)cc1` [Example 378, (R)-tert-Butyl 3-(3-((R)-1-(1H-benzo[d]imidazol-2-yl)-2-(4-methoxyphenyl)ethyl)ureido)-3-phenylpropanoate], with 5.83.
On to `COc1ccc(C[C@@H](NC(=O)Nc2ccon2)c2nc3ccccc3[nH]2)cc1` [Example 379, (R)-1-(1-(1H-Benzo[d]imidazol-2-yl)-2-(4-methoxyphenyl)ethyl)-3-(isoxazol-3-yl)urea hydrochloride], for which the pEC50 is 5.96.
Then `COc1ccc(CC(NC(=O)NCc2cc(C3CC3)on2)c2nc3ccccc3[nH]2)cc1` (centres unmarked) [Example 380, 1-(1-(1H-Benzo[d]imidazol-2-yl)-2-(4-methoxyphenyl)ethyl)-3-((5-cyclopropylisoxazol-3-yl)methyl)urea], with 5.96; and `COc1ccc(C[C@@H](NC(=O)NC(C)c2ccc(OC(F)(F)F)cc2)c2nc3ccccc3[nH]2)cc1` (stereo partly drawn) [Example 381, 1-((R)-1-(1H-Benzo[d]imidazol-2-yl)-2-(4-methoxyphenyl)ethyl)-3-(1-(4-(trifluoromethoxy)phenyl)ethyl)urea], with 5.93.
As for `COc1ccc(C[C@@H](NC(=O)N2CC3CC2CN3C(=O)OC(C)(C)C)c2nc3ccccc3[nH]2)cc1` (stereo partly drawn) [Example 382, tert-Butyl 5-(((R)-1-(1H-benzo[d]imidazol-2-yl)-2-(4-methoxyphenyl)ethyl)carbamoyl)-2,5-diazabicyclo[2.2.1]heptane-2-carboxylate], the negative logarithm of the EC50 (pEC50) was 5.72.
For the compound `COc1ccc(C[C@@H](NC(=O)N[C@H](C)C2CCCCC2)c2nc3ccccc3[nH]2)cc1` [Example 383, 1-((R)-1-(1H-Benzo[d]imidazol-2-yl)-2-(4-methoxyphenyl)ethyl)-3-((R)-1-cyclohexylethyl)urea], the pEC50 was 5.75.
Then `COc1ccc(CC(NC(=O)NCc2ccon2)c2nc3ccccc3[nH]2)cc1` (centres unmarked) [Example 384, 1-(1-(1H-Benzo[d]imidazol-2-yl)-2-(4-methoxyphenyl)ethyl)-3-(isoxazol-3-ylmethyl)urea], with 5.91.
The figure for `COc1ccc(CC(NC(=O)NCc2cccnc2OC)c2nc3ccccc3[nH]2)cc1` (centres unmarked) [Example 385, 1-(1-(1H-Benzo[d]imidazol-2-yl)-2-(4-methoxyphenyl)ethyl)-3-((2-methoxypyridin-3-yl)methyl)urea] is 5.99; for `COc1ccc(C[C@@H](NC(=O)NC(C)c2ccncn2)c2nc3ccccc3[nH]2)cc1` (stereo partly drawn) [Example 386, 1-((R)-1-(1H-Benzo[d]imidazol-2-yl)-2-(4-methoxyphenyl)ethyl)-3-(1-(pyrimidin-4-yl)ethyl)urea] it is 5.91.
Then `COc1ccc(CNC(=O)N[C@H](Cc2ccc(OC)cc2)c2nc3ccccc3[nH]2)cc1` [Example 387, (R)-1-(1-(1H-Benzo[d]imidazol-2-yl)-2-(4-methoxyphenyl)ethyl)-3-(4-methoxybenzyl)urea], with 5.86.
For `COc1ccc(CC(NC(=O)NCCCN(C)C)c2nc3ccccc3[nH]2)cc1` (centres unmarked) [Example 388, 1-(1-(1H-Benzo[d]imidazol-2-yl)-2-(4-methoxyphenyl)ethyl)-3-(3-(dimethylamino)propyl)urea], the pEC50 was 5.97.
Take `COc1ccc(C[C@@H](NC(=O)NC2(c3ccccc3Cl)CC2)c2nc3ccccc3[nH]2)cc1` [Example 389, (R)-1-(1-(1H-Benzo[d]imidazol-2-yl)-2-(4-methoxyphenyl)ethyl)-3-(1-(2-chlorophenyl)cyclopropyl)urea]: the negative-log EC50 (pEC50) is 5.93.
The figure for `COc1ccc(C[C@@H](NC(=O)NCCN2CCN(C(C)=O)CC2)c2nc3ccccc3[nH]2)cc1` [Example 390, (R)-1-(1-(1H-Benzo[d]imidazol-2-yl)-2-(4-methoxyphenyl)ethyl)-3-(2-(4-acetylpiperazin-1-yl)ethyl)urea] is 5.57.
Then `COc1ccc(CC(NC(=O)NCCN2CCCC2)c2nc3ccccc3[nH]2)cc1` (centres unmarked) [Example 391, 1-(1-(1H-Benzo[d]imidazol-2-yl)-2-(4-methoxyphenyl)ethyl)-3-(2-(pyrrolidin-1-yl)ethyl)urea], with 5.57; and `COc1ccc(C[C@@H](NC(=O)NCc2ccccc2)c2nc3ccccc3[nH]2)cc1` [Example 392, (R)-1-(1-(1H-Benzo[d]imidazol-2-yl)-2-(4-methoxyphenyl)ethyl)-3-benzylurea], with 5.62.
The figure for `COc1ccc(C[C@H](NC(=O)NC2CC(C)(C)NC(C)(C)C2)c2nc3ccccc3[nH]2)cc1` [Example 397, (S)-1-(1-(1H-benzo[d]imidazol-2-yl)-2-(4-methoxyphenyl)ethyl)-3-(2,2,6,6-tetramethylpiperidin-4-yl)urea] is 6.09; for `COc1ccc(CC(NC(=O)Nc2cc(C)on2)c2nc3ccccc3[nH]2)cc1` (centres unmarked) [Example 401, 1-(1-(1H-Benzo[d]imidazol-2-yl)-2-(4-methoxyphenyl)ethyl)-3-(5-methylisoxazol-3-yl)urea] it is 6.43; for `COc1ccc(CC(NC(=O)Nc2ncc(C)s2)c2nc3ccccc3[nH]2)cc1` (centres unmarked) [Example 402, 1-(1-(1H-Benzo[d]imidazol-2-yl)-2-(4-methoxyphenyl)ethyl)-3-(5-methylthiazol-2-yl)urea] it is 6.11.
For `COc1ccc(CC(NC(=O)Nc2cc(-c3ccc(Cl)cc3)nn2C)c2nc3ccccc3[nH]2)cc1` (centres unmarked) [Example 403, 1-(1-(1H-Benzo[d]imidazol-2-yl)-2-(4-methoxyphenyl)ethyl)-3-(3-(4-chlorophenyl)-1-methyl-1H-pyrazol-5-yl)urea], the pEC50 was 6.93.
With `COc1ccc(CC(NC(=O)Nc2cc(-c3ccc(OC)cc3)n[nH]2)c2nc3ccccc3[nH]2)cc1` (centres unmarked) [Example 404, 1-(1-(1H-benzo[d]imidazol-2-yl)-2-(4-methoxyphenyl)ethyl)-3-(3-(4-methoxyphenyl)-1H-pyrazol-5-yl)urea], the pEC50 was 6.80.
As to `COc1ccc(CC(NC(=O)Nc2cc(C3CC3)nn2-c2ccccc2)c2nc3ccccc3[nH]2)cc1` (centres unmarked) [Example 405, 1-(1-(1H-benzo[d]imidazol-2-yl)-2-(4-methoxyphenyl)ethyl)-3-(3-cyclopropyl-1-phenyl-1H-pyrazol-5-yl)urea], the negative-log EC50 (pEC50) is 7.49.
